In patent publication US9279003B2, “Analogs of sodium channel peptide toxin” (priority 2010, dated 2016):
Where a SMILES comes first, the peptide text is derived from it. Bridges are numbered along the chain shown (N, C = ends). [ ]: non-standard residue; d: D form. NMeL = CN[C@@H](CC(C)C)C(=O)O; αMeL = CC(C)C[C@](C)(N)C(=O)O

Columns and labels:
[1] = target: human Nav1.7 (Homo sapiens, UniProt Q15858); assay: cell-based; format: cell-based
[2] = test system: Nav1.2 (rBIIa); format: cell-based, rat

Sequence of human Nav1.7 (Q15858 other isoform, or with tags, fused parts or gaps): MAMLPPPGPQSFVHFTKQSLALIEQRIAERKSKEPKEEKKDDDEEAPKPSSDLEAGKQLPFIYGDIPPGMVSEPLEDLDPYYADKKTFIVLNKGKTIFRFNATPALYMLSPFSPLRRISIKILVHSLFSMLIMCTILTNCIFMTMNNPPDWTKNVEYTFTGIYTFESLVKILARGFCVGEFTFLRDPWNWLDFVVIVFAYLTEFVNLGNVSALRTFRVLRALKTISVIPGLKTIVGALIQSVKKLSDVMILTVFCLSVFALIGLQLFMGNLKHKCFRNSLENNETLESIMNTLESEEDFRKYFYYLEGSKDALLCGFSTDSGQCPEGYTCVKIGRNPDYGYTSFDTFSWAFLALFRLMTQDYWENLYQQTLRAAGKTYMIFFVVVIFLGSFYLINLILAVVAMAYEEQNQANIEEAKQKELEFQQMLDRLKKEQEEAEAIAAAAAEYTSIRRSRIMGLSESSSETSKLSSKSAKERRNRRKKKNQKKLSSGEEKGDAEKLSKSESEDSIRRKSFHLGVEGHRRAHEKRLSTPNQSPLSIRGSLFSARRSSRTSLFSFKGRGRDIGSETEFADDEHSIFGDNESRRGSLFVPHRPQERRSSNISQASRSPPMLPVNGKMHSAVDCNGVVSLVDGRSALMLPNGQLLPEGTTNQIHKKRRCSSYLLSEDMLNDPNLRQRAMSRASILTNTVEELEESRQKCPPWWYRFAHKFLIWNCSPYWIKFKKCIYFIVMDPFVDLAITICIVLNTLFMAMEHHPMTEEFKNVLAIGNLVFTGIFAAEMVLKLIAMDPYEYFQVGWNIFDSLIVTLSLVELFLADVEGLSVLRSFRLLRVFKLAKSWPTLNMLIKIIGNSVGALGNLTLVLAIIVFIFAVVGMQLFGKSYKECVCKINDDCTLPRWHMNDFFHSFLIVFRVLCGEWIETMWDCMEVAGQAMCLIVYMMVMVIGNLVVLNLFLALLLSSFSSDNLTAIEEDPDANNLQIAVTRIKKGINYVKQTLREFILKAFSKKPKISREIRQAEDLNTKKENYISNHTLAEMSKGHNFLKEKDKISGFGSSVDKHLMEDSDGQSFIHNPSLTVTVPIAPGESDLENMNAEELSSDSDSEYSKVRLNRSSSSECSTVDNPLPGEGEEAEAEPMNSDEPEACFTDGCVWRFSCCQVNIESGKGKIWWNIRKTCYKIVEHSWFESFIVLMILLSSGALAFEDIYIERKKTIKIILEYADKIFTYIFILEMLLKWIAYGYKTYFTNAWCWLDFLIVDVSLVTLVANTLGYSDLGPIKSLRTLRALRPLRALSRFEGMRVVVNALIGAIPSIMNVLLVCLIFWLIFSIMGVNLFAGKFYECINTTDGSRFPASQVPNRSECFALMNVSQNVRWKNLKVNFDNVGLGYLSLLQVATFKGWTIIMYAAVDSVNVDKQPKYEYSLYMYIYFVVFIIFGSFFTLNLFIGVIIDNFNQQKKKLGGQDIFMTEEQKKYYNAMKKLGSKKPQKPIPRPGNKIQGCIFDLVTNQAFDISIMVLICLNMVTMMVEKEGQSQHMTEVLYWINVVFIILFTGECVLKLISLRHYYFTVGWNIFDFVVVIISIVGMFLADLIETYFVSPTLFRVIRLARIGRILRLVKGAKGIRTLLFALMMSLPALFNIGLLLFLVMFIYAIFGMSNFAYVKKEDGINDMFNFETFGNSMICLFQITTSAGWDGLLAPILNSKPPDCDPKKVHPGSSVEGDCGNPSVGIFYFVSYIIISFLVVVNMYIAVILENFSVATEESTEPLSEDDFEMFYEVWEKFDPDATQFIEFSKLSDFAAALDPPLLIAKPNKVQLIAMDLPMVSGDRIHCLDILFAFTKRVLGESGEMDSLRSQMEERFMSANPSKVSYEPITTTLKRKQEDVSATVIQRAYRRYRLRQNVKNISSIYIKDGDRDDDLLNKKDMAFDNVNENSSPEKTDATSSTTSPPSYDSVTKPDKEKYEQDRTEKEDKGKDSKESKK

Structure (SMILES) | IC50 [1] [nM] | IC50 [2] [nM]
CC[C@H](C)[C@H](NC(=O)[C@H](CCCNC(=N)N)NC(=O)[C@H](CCCCN)NC(=O)[C@@H]1CSSC[C@@H]2NC(=O)[C@H](CCCCN)NC(=O)[C@H](CCCNC(=N)N)NC(=O)[C@H](CCC(=O)O)NC(=O)[C@H](CCC(=O)O)NC(=O)[C@H](CC(=O)O)NC(=O)[C@@H]3CSSC[C@H](NC(=O)[C@H](C(C)C)NC(=O)[C@H](CC(C)C)NC(=O)CNC(=O)[C@H](CCC(=O)O)NC(=O)[C@H](CSSC[C@H](NC(=O)[C@@H](N)Cc4ccc(O)cc4)C(=O)N[C@@H](CCC(N)=O)C(=O)N[C@@H](CCCCN)C(=O)N[C@@H](Cc4c[nH]c5ccccc45)C(=O)N[C@@H](CCSC)C(=O)N[C@@H](Cc4c[nH]c5ccccc45)C(=O)N[C@@H]([C@@H](C)O)C(=O)N3)NC2=O)C(=O)N[C@@H](CCCNC(=N)N)C(=O)N[C@@H](CC(C)C)C(=O)N[C@@H](Cc2c[nH]c3ccccc23)C(=O)N1)C(=O)N[C@H](C(=O)N[C@@H](CC(N)=O)C(=O)N[C@@H](CCSC)C(=O)O)[C@@H](C)CC [GsMTx II/PaTX II, reference compound] (H-YCQKWMWTCDEERKCCEGLVCRLWCKRIINM-OH; disulfide 2-16, 9-21, 15-25) | 260 | –
CSCC[C@@H]1NC(=O)CNC(=O)[C@H](CCC(=O)O)NC(=O)[C@@H]2CSSC[C@H](NC(=O)[C@@H](N)Cc3ccc(O)cc3)C(=O)N[C@@H](CCC(N)=O)C(=O)N[C@@H](CCCCN)C(=O)N[C@@H](Cc3c[nH]c4ccccc34)C(=O)N[C@@H](CCSC)C(=O)N[C@@H](Cc3c[nH]c4ccccc34)C(=O)N[C@@H]([C@@H](C)O)C(=O)N[C@H]3CSSC[C@H](NC(=O)[C@H](C(C)C)NC1=O)C(=O)N[C@@H](CCCNC(=N)N)C(=O)N[C@@H](CC(C)C)C(=O)N[C@@H](Cc1c[nH]c4ccccc14)C(=O)N[C@H](C(=O)N[C@@H](CCCCN)C(=O)N[C@@H](CCCCN)C(=O)N[C@@H](CCCCN)C(=O)N[C@@H](CC(C)C)C(=O)N[C@@H](Cc1c[nH]c4ccccc14)C(=O)O)CSSC[C@H](NC(=O)[C@H](CCCCN)NC(=O)[C@H](CCCNC(=N)N)NC(=O)[C@H](C)NC(=O)[C@H](CO)NC(=O)[C@H](CC(=O)O)NC3=O)C(=O)N2 [compound 3] | 0.2 ± 0.03 | 8 ± 2
CSCC[C@@H]1NC(=O)[C@H](Cc2c[nH]c3ccccc23)NC(=O)[C@H](CCCCN)NC(=O)[C@H](CCC(N)=O)NC(=O)[C@@H](NC(=O)[C@@H](N)Cc2ccc(O)cc2)CSSC[C@@H]2NC(=O)[C@@H]3CSSC[C@@H](C(=O)N[C@@H](CCCCN)C(=O)N[C@@H](CCCCN)C(=O)N[C@@H](CCCCN)C(=O)N[C@@H](CC(C)C)C(=O)N[C@@H](Cc4c[nH]c5ccccc45)C(=O)O)NC(=O)[C@H](Cc4c[nH]c5ccccc45)NC(=O)[C@H](CC(C)C)NC(=O)[C@H](CCCNC(=N)N)NC(=O)[C@H](CSSC[C@H](NC(=O)[C@H]([C@@H](C)O)NC(=O)[C@H](Cc4c[nH]c5ccccc45)NC1=O)C(=O)N[C@@H](CC(=O)O)C(=O)N[C@@H](CO)C(=O)N[C@@H](CCC(=O)O)C(=O)N[C@@H](CCCNC(=N)N)C(=O)N[C@@H](CCCCN)C(=O)N3)NC(=O)[C@H](C(C)C)NC(=O)[C@H](CC(C)C)NC(=O)CNC(=O)[C@H](CCC(=O)O)NC2=O [compound 4] | 1.7 ± 0.1 | 44.7 ± 15
CC[C@H](C)[C@H](NC(=O)[C@@H](NC(=O)[C@H](CCCCN)NC(=O)[C@H](CCCCN)NC(=O)[C@@H]1CSSC[C@@H]2NC(=O)[C@H](CCCCN)NC(=O)[C@H](CCCNC(=N)N)NC(=O)[C@H](CCC(=O)O)NC(=O)[C@H](CO)NC(=O)[C@H](CC(=O)O)NC(=O)[C@@H]3CSSC[C@H](NC(=O)[C@H](C(C)C)NC(=O)[C@H](CCSC)NC(=O)CNC(=O)[C@H](CCC(=O)O)NC(=O)[C@H](CSSC[C@H](NC(=O)[C@@H](N)Cc4ccc(O)cc4)C(=O)N[C@@H](CCC(N)=O)C(=O)N[C@@H](CCCCN)C(=O)N[C@@H](Cc4c[nH]c5ccccc45)C(=O)N[C@@H](CCSC)C(=O)N[C@@H](Cc4c[nH]c5ccccc45)C(=O)N[C@@H]([C@@H](C)O)C(=O)N3)NC2=O)C(=O)N[C@@H](CCCNC(=N)N)C(=O)N[C@@H](CC(C)C)C(=O)N[C@@H](Cc2c[nH]c3ccccc23)C(=O)N1)[C@@H](C)CC)C(=O)O [compound 5] | 552 ± 90 | 919 ± 130
CSCC[C@@H]1NC(=O)[C@H](Cc2c[nH]c3ccccc23)NC(=O)[C@H](CCCCN)NC(=O)[C@H](CCC(N)=O)NC(=O)[C@@H](NC(=O)[C@@H](N)Cc2ccc(O)cc2)CSSC[C@@H]2NC(=O)[C@@H]3CSSC[C@@H](C(=O)N[C@@H](CCCCN)C(=O)N[C@@H](CCCCN)C(=O)N[C@@H](CCCCN)C(=O)N[C@@H](CC(C)C)C(=O)N[C@@H](Cc4c[nH]c5ccccc45)C(=O)O)NC(=O)[C@H](Cc4c[nH]c5ccccc45)NC(=O)[C@H](CC(C)C)NC(=O)[C@H](CCCNC(=N)N)NC(=O)[C@H](CSSC[C@H](NC(=O)[C@H]([C@@H](C)O)NC(=O)[C@H](Cc4c[nH]c5ccccc45)NC1=O)C(=O)N[C@@H](CC(=O)O)C(=O)N[C@@H](CO)C(=O)N[C@@H](C)C(=O)N[C@@H](CCCNC(=N)N)C(=O)N[C@@H](CCCCN)C(=O)N3)NC(=O)[C@H](C(C)C)NC(=O)[C@H](CC(C)C)NC(=O)CNC(=O)[C@H](CCC(=O)O)NC2=O [compound 6] (H-YCQKWMWTCDSARKCCEGLVCRLWCKKKLW-OH; disulfide 2-16, 9-21, 15-25) | 1 | 24 ± 10
CSCC[C@@H]1NC(=O)[C@H](Cc2c[nH]c3ccccc23)NC(=O)[C@H](CCCCN)NC(=O)[C@H](CCC(N)=O)NC(=O)[C@@H](NC(=O)[C@@H](N)Cc2ccc(O)cc2)CSSC[C@@H]2NC(=O)[C@@H]3CSSC[C@@H](C(=O)N[C@@H](CCCCN)C(=O)N[C@@H](CCCCN)C(=O)N[C@@H](CCCCN)C(=O)N[C@@](C)(CC(C)C)C(=O)N[C@@H](Cc4c[nH]c5ccccc45)C(=O)O)NC(=O)[C@H](Cc4c[nH]c5ccccc45)NC(=O)[C@H](CC(C)C)NC(=O)[C@H](CCCNC(=N)N)NC(=O)[C@H](CSSC[C@H](NC(=O)[C@H]([C@@H](C)O)NC(=O)[C@H](Cc4c[nH]c5ccccc45)NC1=O)C(=O)N[C@@H](CC(=O)O)C(=O)N[C@@H](CO)C(=O)N[C@@H](C)C(=O)N[C@@H](CCCNC(=N)N)C(=O)N[C@@H](CCCCN)C(=O)N3)NC(=O)[C@H](C(C)C)NC(=O)[C@H](CC(C)C)NC(=O)CNC(=O)[C@H](CCC(=O)O)NC2=O [compound 7] (H-YCQKWMWTCDSARKCCEGLVCRLWCKKK[αMeL]W-OH; disulfide 2-16, 9-21, 15-25) | 8 ± 1 | 28 ± 6
CSCC[C@@H]1NC(=O)[C@H](Cc2c[nH]c3ccccc23)NC(=O)[C@H](CCCCN)NC(=O)[C@H](CCC(N)=O)NC(=O)[C@@H](NC(=O)[C@@H](N)Cc2ccc(O)cc2)CSSC[C@@H]2NC(=O)[C@@H]3CSSC[C@@H](C(=O)N[C@@H](CCCCN)C(=O)N[C@@H](CCCCN)C(=O)N[C@@H](CCCCN)C(=O)N(C)[C@@H](CC(C)C)C(=O)N[C@@H](Cc4c[nH]c5ccccc45)C(=O)O)NC(=O)[C@H](Cc4c[nH]c5ccccc45)NC(=O)[C@H](CC(C)C)NC(=O)[C@H](CCCNC(=N)N)NC(=O)[C@H](CSSC[C@H](NC(=O)[C@H]([C@@H](C)O)NC(=O)[C@H](Cc4c[nH]c5ccccc45)NC1=O)C(=O)N[C@@H](CC(=O)O)C(=O)N[C@@H](CO)C(=O)N[C@@H](C)C(=O)N[C@@H](CCCNC(=N)N)C(=O)N[C@@H](CCCCN)C(=O)N3)NC(=O)[C@H](C(C)C)NC(=O)[C@H](CC(C)C)NC(=O)CNC(=O)[C@H](CCC(=O)O)NC2=O [compound 8] (H-YCQKWMWTCDSARKCCEGLVCRLWCKKK[NMeL]W-OH; disulfide 2-16, 9-21, 15-25) | 18 | 51 ± 10
